Consider 33 molecules from the METLIN SMRT retention time set (Domingo-Almenara et al. 2019).

The nature of the series: gradient 5% acetonitrile 3 min, to 50% in 2 min, to 85% in 15 min, held 3 min, 100 µL/min. The conditions noted are these: column: Zorbax Extend-C18 2.1 x 50 mm; eluents: water / acetonitrile, 0.1% formic acid. Summed up: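 Values are retention times taken from adduct peaks that software picked and an analyst inspected. The pure standards were run as mixtures of ~100 molecules on HPLC linked to a quadrupole time-of-flight mass spectrometer, in positive and negative ionization mode. A Zorbax Extend-C18 column (2.1 × 50 mm, 1.8 μm) was used at 100 μL/min with water and acetonitrile, each including 0.1% formic acid.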
As to `Cc1ccc2[nH]cc(CCNC(=O)C3CCN(c4ccc(N5CCCCC5)nn4)CC3)c2c1`, the RP-LC retention time turned out to be 685 s.
Molecule `CC(C)n1nc(-c2nc(-c3cccc(Cl)c3)no2)ccc1=O` had an RP-LC retention time of 1150 s.
With `COc1cc(OC)c(NC(=O)C2=C(C)C(=O)OC23CCN(C(C)C)CC3)cc1Cl`, the RP-LC retention time was determined as 654 s.
As for `CCc1nncn1C1CCN(S(=O)(=O)c2cc(F)ccc2OC)CC1`, the figure is 696 s; as for `COCCNC(=O)C1CCN(c2cnn(Cc3ccccc3)c(=O)c2)CC1`, 661 s; as for `Cc1sc2ccn(C)c(=O)c2c1C(=O)NC1CCCCCC1`, 804 s.
For `Cc1noc(-c2nn(C)c3c2CN(C(=O)NCc2ccc(F)cc2)CC3)n1` the value was 699 s; for `COc1ccc(-c2nc(-c3cn(Cc4cccc(F)c4)nn3)no2)cc1`, 983 s; for `Cc1nnc(NC(=O)CN2CCc3nc(NC(=O)c4cnccn4)sc3C2)s1`, 546 s.
As for `CSc1nnc(-c2nn(C)c3c2CN(C(=O)c2c(F)cccc2Cl)CC3)n1C`, the figure is 728 s.
The molecule `O=C(NCC(O)c1cccc2ccccc12)NC1CCCCC1` (stereo not drawn) returned an RP-LC retention time of 781 s.
For `COc1ccc(-c2nn3c(-c4ccccc4F)nnc3s2)cc1` the value was 935 s; for `COc1ccc(NC(=O)Nc2nccn(-c3ccccc3)c2=O)cc1OC`, 784 s.
As for `CSc1ccccc1N1CCN(CCCCCC(=O)NC2CCCc3ccccc32)CC1` (stereo not drawn), the figure is 855 s.
As for `COc1ccc(S(=O)(=O)N2CCCC2)cc1C(=O)Nc1cccc2cnccc12`, the figure is 598 s.
`COc1ccc(-c2csc(NC(=O)Cc3csc(-c4ccccc4)n3)n2)cc1` showed an RP-LC retention time of 1090 s.
For `O=C(Nc1ccc(Br)cc1)N1CCC(N2CCN(Cc3ccccc3)C2=O)CC1` the value was 893 s.
As for `COc1ccc(OC)c(CNC(=O)[C@@H]2[C@H](c3cc(OC)c(OC)c(OC)c3)c3cc4c(cc3[C@H](O)[C@H]2CO)OCO4)c1`, the figure is 721 s; as for `O=C(Nc1ccc2c(c1)OCO2)C1CCN(c2cc(N3CCSCC3)ncn2)CC1`, 676 s; as for `Cc1ccc(Cl)c(Nc2ccccc2C(=O)O)c1Cl`, 1050 s.
For `COC(=O)C1C(c2ccccc2)=NN(c2ccccc2)C1C(=O)OC` (stereo not drawn) the value was 1090 s; for `CCC(=O)N1CCC2(CC1)CC1C(=O)N(CC)C(=O)N1C2` (stereo not drawn), 626 s.
In turn, `CCOC(=O)CC(NC(=O)CCc1c(C)nc2ncnn2c1C)c1ccc(C)cc1` (stereo not drawn) returned an RP-LC retention time of 695 s.
As for `CCc1ccc(-c2cn3cc(C(=O)NCCN4CCN(CC)CC4)ccc3n2)cc1`, the figure is 576 s; as for `Cc1ccc(NC(=O)Nc2ccc3nnc(C4CCC4)n3c2)cc1Cl`, 870 s.
As for `CC(=O)NCc1nc(-c2ccc(Oc3ccc(NC(C)=O)cc3)cc2)no1`, the figure is 662 s; as for `Cn1cc(-c2cc3n(n2)CCCN3C(=O)CCC(=O)NCCN2CCOCC2)c2ccccc21`, 618 s; as for `CC(C)COc1cc(=O)n2c(c1C(=O)NCCCN1CCCCC1)CCCCC2`, 584 s.
For `O=C(C1CCN(S(=O)(=O)Cc2ccc(F)cc2)CC1)N1CCOCC1` the value was 705 s.
On to `Cc1cc(C(=O)Nc2nc3c(s2)CN(C(=O)c2snnc2C)CC3)no1`, for which the RP-LC retention time worked out at 660 s.
As for `CCn1cnc2ccc(-c3noc(Cc4ccc(OC)cc4)n3)cc21`, the figure is 728 s; as for `COCCn1cc(CCNC(=O)c2cncc(Br)c2)c2cccnc21`, 678 s.
Consider `O=S(=O)(c1ccc(Br)s1)N1CCN(S(=O)(=O)C2CC2)CC1`, for which the RP-LC retention time came to 854 s.
